The structures appear in SMILES notation.

The target of one experiment is Carbonic anhydrase 9 (Homo sapiens, UniProt Q16790). The experiment can be described thus: Inhibition of human carbonic anhydrase 9 incubated for 15 mins prior to testing by stopped flow CO2 hydration assay.
The next experiment deals with Carbonic anhydrase 12 (Homo sapiens, UniProt O43570). The experiment can be described thus: Inhibition of human carbonic anhydrase 12 incubated for 15 mins prior to testing by stopped flow CO2 hydration assay.
Sequence of Carbonic anhydrase 12 (O43570 whole entry): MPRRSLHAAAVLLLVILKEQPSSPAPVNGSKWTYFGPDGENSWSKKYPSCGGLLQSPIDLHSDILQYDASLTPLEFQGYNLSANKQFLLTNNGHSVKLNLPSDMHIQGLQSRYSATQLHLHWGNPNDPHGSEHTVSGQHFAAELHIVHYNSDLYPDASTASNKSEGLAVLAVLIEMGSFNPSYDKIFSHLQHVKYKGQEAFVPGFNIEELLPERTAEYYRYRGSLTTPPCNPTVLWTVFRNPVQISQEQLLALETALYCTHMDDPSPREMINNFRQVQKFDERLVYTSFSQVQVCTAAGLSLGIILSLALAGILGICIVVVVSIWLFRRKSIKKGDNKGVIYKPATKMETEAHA

Consider `NS(=O)(=O)c1ccc(O)cc1`, for which the Ki was 0.235 µM at Carbonic anhydrase 9 and 0.176 µM on Carbonic anhydrase 12.
As for `O=S(=O)(N[C@H]1C=C[C@@H](O)[C@@H](CO)O1)c1ccc(O)cc1`, the Ki at Carbonic anhydrase 9 and at Carbonic anhydrase 12 was over 50 µM throughout.
On to `O=S(=O)(N[C@@H]1C=C[C@@H](O)[C@@H](CO)O1)c1ccc(O)cc1`, for which the Ki on Carbonic anhydrase 9 and at Carbonic anhydrase 12 was over 50 µM throughout.
For `CC(=O)OC[C@H]1O[C@@H](NS(=O)(=O)c2ccc(O)cc2)C=C[C@H]1OC(C)=O`, the Ki on Carbonic anhydrase 9 and at Carbonic anhydrase 12 was over 50 µM each time.
On to `CC(=O)OC[C@H]1O[C@H](NS(=O)(=O)c2ccc(O)cc2)C=C[C@H]1OC(C)=O`, for which the Ki on Carbonic anhydrase 9 and at Carbonic anhydrase 12 was over 50 µM throughout.
Take `O=S(=O)(NC1C=C[C@H](O)[C@@H](CO)O1)c1ccc(O)cc1` (stereo partly drawn): the Ki on Carbonic anhydrase 9 and at Carbonic anhydrase 12 was over 50 µM each time.
Regarding `CC(=O)OC[C@H]1OC(NS(=O)(=O)c2ccc(O)cc2)C(OC(C)=O)=C[C@@H]1OC(C)=O` (stereo partly drawn), the Ki at Carbonic anhydrase 9 and on Carbonic anhydrase 12 was over 50 µM each time.
Regarding `O=C1C[C@H](O)[C@@H](CO)OC1NS(=O)(=O)c1ccc(O)cc1` (stereo partly drawn), the Ki on Carbonic anhydrase 9 and on Carbonic anhydrase 12 was over 50 µM in each case.
Turning to `CC(=O)OC[C@H]1OC(NS(=O)(=O)c2ccc(O)cc2)C=C[C@@H]1OC(C)=O` (relative stereo), the Ki at Carbonic anhydrase 9 and on Carbonic anhydrase 12 was over 50 µM throughout.

(Values after ChEMBL document CHEMBL4431323, “Synthesis and carbonic anhydrase inhibitory effects of new N-glycosylsulfonamides incorporating the phenol moiety” (Bioorg Med Chem Lett, 2016).)
